Reference: publication PMC7558015, “Enhanced Intestinal Absorption and Pharmacokinetic Modulation of Berberine and Its Metabolites through the Inhibition of P-Glycoprotein and Intestinal Metabolism in Rats Using a Berberine Mixed Micelle Formulation” (Pharmaceutics, 2020)
Where two headings read alike, the source gives them in different places.

Key:
[1] = Pharmacokinetic study after oral administration in rats; type: in vivo
Method: All the animal procedures were approved by the animal care and use committee of Kyungpook National University (Daegu, Korea; Approval No. KNU-2014-0097 and KNU-2019-0004). Male Sprague–Dawley rats weighing 250–270 g (8 weeks old) were purchased from Samtako Bio Korea (Osan, Kyunggido, Korea). When the rats arrived, they were housed with a 12 h light/dark cycle. Food and water were supplied ad libitum for 1 week prior to the animal experiment. […] The femoral vein, femoral arteries, and bile ducts of the rats were cannulated with polyethylene tubes (PE50 or PE10, Jungdo, Seoul, Korea) under anesthesia with isoflurane […] on the warming surgery table (YTK corp. Seoul, Korea), and the rats were remained on the warming table to maintain body temperature during the pharmacokinetic study. […] The prepared berberine suspension or berberine formulation was administered to rats via oral gavage. Blood samples (approximately 150 µL) were taken via the femoral artery at 0, 0.25, 0.5, 1, 1.5, 2, 4, 8, and 12 h after the oral administration, and pre-warmed saline (approximately 150 µL) was injected into the femoral vein to compensate the blood loss. The blood samples were centrifuged at 10,000× g for 1 min at 4 °C. Bile and urine samples were collected every 4 h for 12 h. After 12 h, the bile and urine samples were pooled and weighed. Aliquots (50 µL each) of plasma, urine, and bile samples were stored at −80 °C for the analysis of berberine and its metabolites. Plasma, urine, and bile samples (50 µL) were added to 150 µL of methanol containing propranolol (10 ng/mL), vortex-mixed for 15 min, and centrifuged at 10,000× g for 5 min at 4 °C. An aliquot (10 µL) of the supernatant was injected into the LC–MS/MS system. Agilent 6430 Triple Quad LC/MS system (Agilent, Wilmington, DE, USA) coupled with an Agilent 1260 series HPLC system was used for the analysis of berberine and its metabolites using the modified method of Kwon et al.. The separation was performed on a Synergy polar RP column (2.0 mm × 150 mm, 4 μm; Phenomenex, Torrance, CA, USA) using a gradient elution of the mobile phase that consisted of methanol and water with 0.1% formic acid at a flow rate of 0.2 mL/min. The composition of the mobile phase was as follows: 55% methanol for 0–2.5 min, 70% methanol for 3–5 min, 55% methanol for 5.3–12 min. The retention time was 3.01 min and 3.53 min for thalifendine-glucuronide and berberrubine-glucuronide, 6.30 min for thalifendine-sulfate, 7.79 min for berberine, 5.47 min for thalifendine, 6.38 min for berberrubine, and 2.53 min for propranolol. Mass spectra were recorded by electrospray ionization with a positive mode. Quantification was carried out using MRM at m/z 498.1 → 322.1 for thalifendine-glucuronide and berberrubine-glucuronide, m/z 402.0 → 322.1 for thalifendine-sulfate, m/z 336.1 → 320.0 for berberine, m/z 322.1 → 307.1 for thalifendine and berberrubine, and m/z 260.0 → 116.0 for propranolol. […] The thalifendine-glucuronide, berberrubine-glucuronide, and thalifendine-sulfate were relatively quantitated using berberine’s standard curve, since the authentic standard compounds were not available. The pharmacokinetic parameters were calculated by non-compartmental analysis using the WinNonlin Version 5.1 software (Pharsight, Certara, NJ, USA). Statistical analysis was performed using SPSS for Windows (version 24.0; IBM Corp., Armonk, NY, USA).

[2] = test system: human colon cancer HCT-8 cells; set-up: method as in PMID 23682426; conditions: cited from earlier work
[3] = Caco-2 permeability / transport of berberine and berberine formulation; type: in vitro ADME; conditions: human
Method: (§1) The cells were grown for 21 days and the culture medium was changed every 2 days. The integrity of the cell monolayers was evaluated prior to the transport experiments by measuring the transepithelial electrical resistance (TEER). […] To characterize the absorption transport of berberine in Caco-2 cells, the apical to basal (A to B) and basal to apical (B to A) transport of berberine was measured. […] The insert was then transferred to a well containing fresh HBSS medium every 15 min for 1 h. […] The transport medium on the apical side was replaced with 0.4 mL of fresh incubation medium every 15 min for 1 h. […] The insert was then transferred to a well containing fresh HBSS medium every 15 min for 1 h. […] The transport medium on the apical side was replaced with 0.4 mL of fresh incubation medium every 15 min for 1 h. […] The TEER values were monitored before and after the transport experiments with berberine formulation using an epithelial TEER meter (World Precision Instruments, Sarasota, FL, USA). A 100 μL aliquot of each sample was added to a 100 μL aliquot of ice-cold methanol containing 10 ng/mL of propranolol (IS). After vortexing and centrifuging the samples at 16,000× g for 10 min, the supernatant was injected directly into the LC-MS/MS system.

Caco-2 cells [4] = experiment: as above; type: in vitro ADME
Method: as §1

[5] = rats; cited from earlier work
[6] = cited from earlier work
Caco-2 cells [7] = experiment: cells
Method: Caco-2 cells were seeded onto 96-well plates (BD-Corning, Corning, NY, USA) at a density of 1 × 10^5 cells/well, and cultured for 24 h at 37 °C in a 5% CO2 incubator. […] As a control group, berberine was treated at concentrations of 0, 1, 5, 10, 50, 100, 500, and 1000 μM. After 24 h of treatment, 20 μL of CellTiter 96 aqueous one solution from a cell proliferation assay kit (Promega, Madison, WI, USA) was added to the culture medium and incubated for 1 h. The absorbance rate of the reaction mixture was measured at 492 nm using an Infiniti M200Pro microplate reader (Tecan, Zurich, Switzerland).

[8] = test system: β-Glucuronidase and sulfatase; experiment: Glucuronidase and sulfatase treatment (bile samples, stability of standards); type: in vitro ADME, Helix pomatia
Method: The reaction was terminated by adding 150 µL of ice-cold methanol containing propranolol (10 ng/mL), vortex-mixed for 5 min, and centrifuged at 10,000× g for 5 min at 4 °C. An aliquot (10 µL) of the supernatant was injected into the LC–MS/MS system.

[9] = set-up: method as in PMID 15531889; conditions: 32 hypercholesterolemic patients; cited from earlier work
[10] = 8 h of incubation, 37 °C, pH 5.0
[11] = after Berberine Formulation PO 50 mg/kg, rats
[12] = after Berberine PO 50 mg/kg, rats
[13] = berberine formulation group compared with berberine group, PO 50 mg/kg, rats
[14] = male, Sprague–Dawley, rat, plasma, po, 50 mg/kg, plasma, after Berberine Formulation PO 50 mg/kg, rats
[15] = male, Sprague–Dawley, rat, plasma, po, 50 mg/kg, plasma, after Berberine Formulation PO 50 mg/kg, rats, read-out: Tmax (converted)
[16] = male, Sprague–Dawley, rat, plasma, po, 50 mg/kg, plasma, after Berberine PO 50 mg/kg, rats
[17] = male, Sprague–Dawley, rat, plasma, po, 50 mg/kg, plasma, after Berberine PO 50 mg/kg, rats, read-out: Tmax (converted)

With thalifendine/berberrubine-sulfate the Tmax ([1]; rat, in vivo, po, 50 mg/kg) was 10.67 ± 2.31 h and the “fold increase in AUC” value ([1]; rat, in vivo, po, 50 mg/kg) was 5.8 fold.

For COc1ccc2cc3[n+](cc2c1OC)CCc1cc2c(cc1-3)OCO2 [Berberine], the IC50 [2] is given as 470 µM, the efflux ratio at 1 h, 1 μM ([3]; Caco-2, pH 7.4, 1 μM of berberine (alone or in formulation)) is given as 14.1 and the efflux ratio at 1 h, 100 μM ([3]; Caco-2, pH 7.4, 100 μM of berberine (alone or in formulation)) is given as 7.5. It also gave an efflux ratio at 1 h, 10 μM ([3]; Caco-2, pH 7.4, berberine 10 μM, absence of CsA) of 13.8, an efflux ratio at 1 h, 10 μM ([3]; Caco-2, pH 7.4, with cyclosporine A 25 μM, berberine 10 μM, presence of CsA 25 μM) of 2.2 and an efflux ratio (Caco-2 cells [4]; 100 μM of berberine (alone or in formulation)) of 7.54. The “CLint (P-gp-mediated efflux clearance)” value (Caco-2 cells [4]; Caco-2) was 1.61 µL/min, the “Kd (absorptive diffusion clearance)” value (Caco-2 cells [4]; Caco-2) was 0.03 µL/min and the “Vmax of B to A transport” value (Caco-2 cells [4]; Caco-2, 1–100 μM, Michaelis–Menten) was 10.5 pmol/min. For the same compound, the Km (Caco-2 cells [4]; Caco-2, 1–100 μM, Michaelis–Menten, read-out: Km of B to A transport) was 6.5 µM, the “AUC post intraduodenal administration as share of AUC post intraportal vein administration” value [5] was ~0.5% and the “AUC post intraportal vein administration as share of intravenous AUC” value [5] was 72%. For the same compound, the bioavailability [5] was 0.68%, the “oral dose disappeared during gastrointestinal first-pass elimination” value [5] was 99.5% and the AUCliver ([6]; liver) was 0.7286 µg·h/mL. The “share of oral dose entering the portal vein” value ([6]; oral) was 0.5%, the “share of oral dose metabolized in the enterocytes” value ([6]; oral) was “About 43.5%” and the “share of oral dose not absorbed (P-gp-mediated efflux and self-aggregation)” value ([6]; oral) was “About 56%”. The AUCplasma ([6]; plasma) was 0.0864 µg·h/mL, the IC50 (Caco-2 cells [7]; Homo sapiens, Caco-2, 24 h, read-out: IC50 (cell viability)) was 933 µM and the “berberine concentration without (significant) cytotoxicity” value (Caco-2 cells [7]; human, 24 h) was “up to 100 μM”. For the same compound, the “stability after glucuronidase and sulfatase treatment” value [8, 10] was “stable”, the “Xb,12h (amount excreted into bile for 12 h)” value (“Xb,12h” for short) [1, 11] was 992 ± 563 ng and the “Xu,12h (amount excreted into urine for 12 h)” value (shortened to “Xu,12h”) [1, 11] was 21,273 ± 12,517 ng. The “Xb,12h” value [1, 12] was 323.7 ± 155.8 ng, the “Xu,12h” value [1, 12] was 47.3 ± 30.1 ng and the “fold increase in AUC” value [1, 13] was 15.6 fold. It also gave an AUC [1, 14] of 0.537 µg·h/mL, a Cmax [1, 14] of 140 ± 29.4 ng/mL and a Tmax [1, 15] of 0.583 h. It also gave an AUC [1, 16] of 0.0345 µg·h/mL, a Cmax [1, 16] of 67 ± 66.9 ng/mL and a Tmax [1, 17] of 0.5 h. For the same compound, the “decrease of low-density lipoprotein (LDL) cholesterol” value [9] was 25%, the decrease of triglycerides [9] was 35% and the “lowering of total cholesterol” value [9] was 29%.

In the case of COc1c(O)ccc2cc3[n+](cc12)CCc1cc2c(cc1-3)OCO2 [Thalifendine], the “stability after glucuronidase and sulfatase treatment” value [8, 10] is reported as “stable”, the “increase of peak after glucuronidase and sulfatase treatment” value ([8]; rat bile collected 12 h after oral berberine) is reported as 10.6 fold and the “Xb,12h” value [1, 11] is reported as 1871 ± 1092 ng. The “Xu,12h” value [1, 11] was 7209 ± 2632 ng, the “Metabolic ratio (metabolite AUC to berberine AUC)” value (shortened to “Metabolic ratio”) [1, 12] was 0.09% and the “Xb,12h” value [1, 12] was 281.5 ± 250.2 ng. For the same compound, the “Xu,12h” value [1, 12] was 199.3 ± 76.1 ng, the “fold increase in AUC” value [1, 13] was 9.3 fold and the AUC [1, 14] was 0.0281 µg·h/mL. It also gave a Cmax [1, 14] of 5.45 ± 3.12 ng/mL, a Tmax [1, 15] of 10.7 h and an AUC [1, 16] of 0.00304 µg·h/mL. The Cmax [1, 16] was 0.64 ± 0.19 ng/mL and the Tmax [1, 17] was 7 h.

For COc1ccc2cc3[n+](cc2c1O)CCc1cc2c(cc1-3)OCO2 [Berberrubine], the “degraded by glucuronidase and sulfatase treatment” value [8, 10] was “more than 94%”, the “Metabolic ratio” value [1, 11] was 0.00% and the “Xb,12h” value [1, 11] was 0 ng. For the same compound, the “Xu,12h” value [1, 11] was 67.78 ± 11.89 ng, the “Metabolic ratio” value [1, 12] was 0.04% and the “Xb,12h” value [1, 12] was 0 ng. For the same compound, the “Xu,12h” value [1, 12] was 22.80 ± 15.84 ng, the AUC [1, 14] was 0.00173 µg·h/mL and the Cmax [1, 14] was 0.31 ± 0.18 ng/mL. For the same compound, the Tmax [1, 15] was 0.917 h, the AUC [1, 16] was 0.00134 µg·h/mL and the Cmax [1, 16] was 0.16 ± 0.03 ng/mL. For the same compound, the Tmax [1, 17] was 4.17 h.
